Patent publication US20100124537A1 (priority 2007, published 2010)
Entries after “also recorded” stand apart in the source; their conditions may differ. Like-named read-outs stand apart in the source and are kept apart here.

Key:
[1] = system: bacteria from Helicobacter genus (16S rDNA); assay: 16S rDNA PCR, DGGE and sequencing of stomach mucosa homogenates (Example 2); assay type: in vivo, BALB/cA mice; conditions: for H. pylori DNA / sequences specific for H. pylori in PCR products: infected mice treated with alpha-ketoglutarate (Group III B), ethidium bromide staining
Method: (§1) DNA was also isolated to perform PCR with primers (5′-[…]-3′ and 5′-[…]-3′) recognizing 16S rDNA fragment in DNA of bacteria from Helicobacter genus. Afterwards PCR products in size 470 by were separated according to denaturating gradient gel electrophoresis technique (DGGE) and sequenced. […] Electrophoresis run at a temp of 60° C. in 125 V during 16 h.

H. pylori, strain 119/95 [2] = assay: Mice infectious model with H. pylori, three intragastric doses of alpha-ketoglutaric acid salts, culture on GAB-CAMP agar (Example 2); assay type: in vivo, BALB/cA mice; conditions: for H. pylori colonies cultured from gastric mucosa: infected mice treated 3 consecutive days, 8 days after infection (Group III B); for effect on colonisation of gastric mucosa by H. pylori: three intragastric administrations on 3 consecutive days, started 8 days after last infective dose
Method: Eight days after the last challenge, sixteen mice were inoculated intragastrically through the tube for three successive days with 0.2 ml of 30 mM solution of salts of alpha-ketoglutaric acid (group III B). The remaining eight mice were sham-treated with 0.2 ml of 0.01 M PBS (group III) according to the procedure with group III.
Eight days after above treatment sixteen mice were inoculated with the tube for three consecutive days with salts of […] (0.2 ml, concentration 30 mM) (group IV B). The remaining eight mice were treated with 0.2 ml 0.01 M PBS (group IV).
Stomach and blood were samples were collected for the further studies.
as §1

H. pylori infection = assay: Volunteers with confirmed H. pylori infection taking the calcium salt with a milk drink (Example 4); assay type: in vivo, human; conditions: after two-week treatment
lactic acid bacteria = assay: Lactic acid bacteria isolated from scraped stomach mucosa (antral part); assay type: in vivo; conditions: animals tested, including mice infected with H. pylori and then inoculated with alpha-ketoglutarate
H. pylori, strain 119/95 [3] = system: H. pylori, strain 119/95
Method: Laboratory experimental animals: twenty eight 6 week-old BALB/cA (female) mice weighing 25±2 g (FIG. 1). […] Two weeks after the last challenge, seven mice were inoculated intragastrically for nine successive days by the same method with a solution of calcium or sodium salt of alpha-ketoglutaric acid (0.2 ml, at concentration 30 mM) (group I A). The remaining seven mice were sham-treated with 0.01 M phosphorate buffer—PBS (group I B) as animals from group I A.
Further fourteen mice from group II A and II B were treated with 0.2 ml PBS according to the scheme operating by the infection of the animals with H. pylori. Two weeks after the above treatment seven mice were continuously inoculated with PBS (0.2 ml) for three consecutive days. The remaining seven mice were treated with a solution of salts of alpha-ketoglutaric acid (0.2 ml, concentration 30 mM) (group II A).
On the 30th day of the experiment all mice were sacrificed using CO2. For further analyses blood and stomach samples from mice infected with H. pylori with or without the following inoculation with salts of alpha-ketoglutaric acid were collected. In this experiment the relationship between colonisation level of mouse stomach mucosa (n=28) by H. pylori and the mice treated intragastrically with salts of alpha-ketoglutaric acid were studied in accordance with the time regime as described above.
37° C., under microaerophilic conditions for 7-10 days. From the half of the antrum gastric mucosa was scraped off and mixed with 500 μl PBS sterilized. After homogenate balancing it was noticed that the amount of the scraped mucosa from the half of the antrum was generally between 40 μg a 50 μg. For calculation of number of H. pylori cells, a 100 μl of gastric mucosa homogenate was smeared onto GAB-CAMP agar plates and incubated at temp. 37° C., for 5-10 days, under microaerophilic conditions. Homogenized mucosa samples from each mouse were examined in triplicate. The results are presented as the mean value±SD. The presence of H. pylori was identified by colony morphology and urease-, oxidase- and catalase tests, as well as by morphological examination of cells by Gram-staining.

gastrin = conditions: infected with H. pylori then alpha-ketoglutarate, versus control group (PBS); p<0.01
[4] = Morphology of stomach and small intestine mucosa in mice given alpha-ketoglutarate; assay type: in vivo; conditions: mice infected with H. pylori and following inoculation with alpha-ketoglutarate
[5] = 2-3 years old rats with low initial blood AKG (below 0.1 ug/ml), feed additive; controls did not survive; cited from earlier work
[6] = PBS + AKG (Group IV B), non-infected mice
[7] = listed as salts of alpha-ketoglutaric acid
[8] = PBS + AKG (Group II A), non-infected mice

O=C(O)CCC(=O)C(=O)O [AKG, alpha-ketoglutarate]
differences in number of CCK-producing cells in the small intestine (cholecystokinin (CCK); H. pylori + alpha-ketoglutarate versus alpha-ketoglutarate only, p=0.25): no significant differences | decrease in number of CCK producing cells in the small intestine (cholecystokinin (CCK); animals treated with alpha-ketoglutarate versus non-infected mice given only PBS, tendency, p=0.1): 30% | 16S rDNA PCR - Helicobacter genus: Number of mice with H. pylori DNA/in group ([1]; H. pylori + AKG (Group III B)): 0/16 | 16S rDNA PCR - Helicobacter genus: Number of mice with H. pylori DNA/in group [1, 6]: 0/16 | H. pylori DNA / sequences specific for H. pylori in PCR products [1]: no H. pylori DNA was found | H. pylori DNA / sequences specific for H. pylori in PCR products [1, 7]: not found | H. pylori cultivated: Number of mice infected/in group (H. pylori, strain 119/95 [2]; H. pylori + AKG (Group III B), 0.2 ml 30 mM intragastrically for 3 days starting 8 days after last challenge, day 20): 0/16 | H. pylori cultivated: Number of bacteria (cfu)/mouse (H. pylori, strain 119/95 [2]; H. pylori + AKG (Group III B), H. pylori + PBS gave 4.3 × 10^2 ± 5.0 × 10^1): 0 cfu/mouse | H. pylori cultivated: Number of bacteria (cfu)/mouse (H. pylori, strain 119/95 [2]; [6]): 0 cfu/mouse | H. pylori cultivated: Number of mice infected/in group (H. pylori, strain 119/95 [2]; [6]): 0/16 | H. pylori colonies cultured from gastric mucosa (H. pylori, strain 119/95 [2]): no H. pylori colonies were found | H. pylori colonies cultured from gastric mucosa (H. pylori, strain 119/95 [2]; [7]): not found; also recorded: no H. pylori colony was cultured | effect on colonisation of gastric mucosa by H. pylori (H. pylori, strain 119/95 [2]): completely stopped colonisation and fully eradicated H. pylori | effect on colonisation of gastric mucosa by H. pylori (H. pylori, strain 119/95 [2]; [7]): total inhibitory effect on bacterial colonisation and fully eradication of H. pylori bacteria from gastric mucosa | time for which lack of dyspepsia symptoms was maintained after end of administration (H. pylori infection): one | changes in the amount of lactic acid bacteria isolated from scraped stomach mucosa (antral part) (lactic acid bacteria): no changes | H. pylori cultivated: Number of mice infected/in group (H. pylori, strain 119/95 [3]; H. pylori + AKG (Group I A), 0.2 ml 30 mM intragastrically for 9 days starting 2 weeks after last challenge, day 30): 7/7 | H. pylori cultivated: Number of bacteria (cfu)/mouse (H. pylori, strain 119/95 [3]; H. pylori + AKG (Group I A), mean ± SD, H. pylori + PBS gave 7.8 × 10^2 ± 5.0 × 10^1): 3.8 × 10^2 ± 5.0 × 10^1 cfu/mouse | H. pylori cultivated: Number of bacteria (cfu)/mouse (H. pylori, strain 119/95 [3]; [8]): 0 cfu/mouse | H. pylori cultivated: Number of mice infected/in group (H. pylori, strain 119/95 [3]; [8]): 0/7 | number of colonies (mean±SD) isolated from antral/pyloric part of gastric mucosa (H. pylori, strain 119/95 [3]; infected mice treated 9 days (Group I A), infected only 7.8×10^2±5.0×10^1): 3.8×10^2±5.0×10^1 | reduction of degree of gastric mucosa colonisation by H. pylori (H. pylori, strain 119/95 [3]; nine intragastric administrations on 9 consecutive days, started 14 days after last infective dose, versus mice infected only): 49% | reduction in the number of gastrin-producing cells in the pyloric region of the stomach glands (gastrin): 17% | morphological changes in thickening of mucosa in stomach and small intestine, villus width and crypt depth [4]: no morphological changes

O.O.O=C([O-])CCC(=O)C(=O)[O-].[Na+].[Na+] [Na2AKG*2H2O]
survival of the experiment [5]: survived the experiment
